For series [1], the system named is human leukemic cells (CEM). The experiment in a line: Cytotoxicity of RR1 treated lymphocytes (functional assay, active caspase-3). The class given is cell-based. Particulars: RR1 0-100 μg/ml, 24 hours, then co-incubation with CEM. How it is done:
Normal lymphocytes were treated with RR1 (0-100 μg/ml) for 24 hours in RPMI medium. The cells were washed and co-incubated with PKH26-labeled human leukemic CEM cells for 12 hours for the active NK cells to lyse the tumor cells. The cell mixtures were stained with FITC-labeled and activated caspase-3 monoclonal antibody. The percentage of PKH26+ and Caspase-3+ cells were quantified by analyzing in a Beckman-Coulter Elite flow cytometer (**p=0.01).
Cytotoxicity of RR1 treated lymphocytes. To evaluate the enhanced cytotoxicity of activated lymphocytes, a functional assay was adopted using RR1-activated lymphocytes as effecter cells and human leukemic cells (CEM) as targets (Liu, L. et al. Nat. Med., 2002, 8:185-189; Jerome, K. R. et al. Nat. Med., 2003, 9:4-5). Briefly, normal lymphocytes (10^6/ml) were treated with different concentrations of RR1 in RPMI medium for 24 hours in a CO2 incubator at 37° C. […] The percentage of cells killed by the activated NK cells was determined by fixing the mixture with 1 ml of 2% paraformaldehyde solution for 30 minutes on ice followed by suspending in 0.5% Tween 20 in PBS. The cell mixture was stained with 7.5 μl of anti-active caspase-3-FITC antibody (BD Biosciences, CA) for 30 minutes at room temperature, washed with PBS and analyzed in a Coulter Elite Flow Cytometer.

For series [2], the system named is I-κBα in RAW 264.7 macrophages. Put plainly: I-κBα degradation, immunoblot. The class given is cell-based, mouse. The conditions noted are these: RR1 100 μg/ml, western blot. Here is the method: The cells were treated with RR1 at intervals of 15, 30, and 60 minutes. Degradation of I-κBα levels in cytoplasmic lysates was determined by immunoblot analysis using antimouse I-κBα mAb. I-κBα degradation. The degradation of IκB-α is a prerequisite for the activation of NF-κB. To determine the effect of RR1 on cellular IκB-α levels and its degradation, immunoblot analysis was performed with cytosolic lysates from RR1-treated RAW 264.7 macrophages for different time periods (0, 15 minutes, 30 minutes, 1 hour). The lysates were separated by SDS-PAGE on 12% gels and transferred to nitrocellulose membranes using a TransBlot apparatus (BIO-RAD, Hercules, Calif.). The membranes were hybridized with IκB-α specific monoclonal antibodies (1:1000) by the Western blot hybridization protocol (Lebron, F. et al. J Biol Chem., 2003, 278:25001-25008) using antimouse IκB-α antibody (CELL SIGNALING TECHNOLOGY, Inc, Beverly, Mass.) using the color detection system (BIO-RAD, Hercules, Calif.).
A general note: Immunoblotting shows a protein as a band on a membrane.

Series [3] deals with HEK293 cells transfected with TLR2/6. The experiment in a line: TLR signaling, IL-8 ELISA. Particulars: HEK/TLR2/6, RR1 0-100 μg/ml, 24 hours. The class given is cell-based, human. How it is done: HEK293/TLR2/TLR6 cells (1×10^6) were treated with RR1 (0, 10, 50 and 100 μg/ml) at 37° C. for 24 hours and secreted IL-8 in the medium was analyzed by ELISA protocol.
TLR signaling. To determine the involvement of TLR signaling, parental HEK293 as well as HEK293 cells transfected with human TLR2, TLR6, TLR2/6 or TLR4/CD14/MD2 genes (cloned into pDUO plasmid), were used. These cells (0.5×10^6/ml) were incubated with 0-100 μg/ml of RR1 for 24 hours. Since these cells produce very low level of TNF-α and detectable levels of IL-8 upon activation, IL-8 secreted into the medium was analyzed using ELISA procedure. Incidentally, the IL-8 synthesis is also under the control of the transcription factor NF-κB.
In general terms: In an ELISA, binding on a coated surface is turned into a signal by an enzyme label.

A short description of series [4]: Water solubility. The class given is physicochemical. Here is the method:
Isolation and characterization of RR1. […] The final RR1 compound, shown in FIG. 3, was isolated in about 0.1% yield of the total dry material used for extraction as a puffy solid that dissolved in water. […] Therefore, detailed polysaccharide analyses such as the glycosyl composition, linkage, molecular weight and conformation of the glucose units at the anomeric center were performed at the Complex Carbohydrate Research Center, University of Georgia, Athens. […] To perform glycosyl linkage analysis, the sample was permethylated three times by the method of Cikanu and Kereck (Ciucanu, I. and F. Kereck Carbohydr. Res., 1984, 131:209-217), hydrolyzed with 2 M trifluroacetic acid, reduced with NaBD4 and acetylated with acetic anhydride/pyridine and the resulted partially methylated alditol acetates (PMAA) were analyzed by GC/MS. […] The conformations at the anomeric center of the glucopyranosyl units were obtained based on the 500 MHz protonNMR spectra recorded in D2O and by comparison with the anomeric proton signals of standard samples. The molecular mass was obtained from the size exclusion chromatography using SUPELCO silica column (1.0×30 cm), eluting with 50 mM ammonium formate buffer at a rate of […]. and detected by the refractive index. […]

As for (1,4)-α-D-glucan [RR1], in series [1], the “killing of tumor cells by RR1-treated normal lymphocytes” value is on record as “dose-dependent enhancement of cytotoxicity”. Further, in series [2], the “time to complete removal of I-κBα expression” value is 60 min. For the same substance, in series [3], the IL-8 production entry was “copious induction of IL-8”. In series [4], the solubility in water entry is listed as “soluble in water”.

For the origin of these results see patent US7425548B2, “Materials and methods for immune system stimulation” (Variety Chidren's Hospital, priority 2004, dated 2008).
